In article PMC11822212, “High-throughput screening identifies Aurora kinase B as a critical therapeutic target for Merkel cell carcinoma” (Nature Communications, 2025):

How the values were obtained:
CRL-7250 cells = assay: qHTS cell viability (CellTiter-Glo, 72 h; primary screen), control cell line; type: cell-based
MCC26 cells (VN-MCC) = assay: qHTS cell viability (CellTiter-Glo, 72 h; primary and follow-up small molecule screen); type: cell-based, human
MCC13 cells (VN-MCC) = assay: as above; type: cell-based, human
HEK293T cells = assay: qHTS cell viability (CellTiter-Glo, 72 h; primary screen), control cell line; type: cell-based, human
[1] = system: control cell lines (HACAT, HEK293T, CRL-7250, NIH-3T3); assay: qHTS cell viability, control cell lines as a group (mean AUC, Control.avg); type: cell-based; conditions: NPC library; mean AUC of control cell lines
HACAT cells = assay: qHTS cell viability (CellTiter-Glo, 72 h; primary screen), control cell line; type: cell-based, human
NIH-3T3 cells = assay: as above; type: cell-based, mouse
[2] = system: VP-MCC cell lines (WAGA, MKL-1, MKL-2); assay: qHTS cell viability, VP-MCC cell lines as a group (mean AUC, VP.MCC.avg); type: cell-based, human; conditions: NPC library; for VP-MCC_Avg_AUC: mean AUC of VP-MCC cell lines; for Control-VP-MCC: therapeutic window: Control avg AUC minus VP-MCC avg AUC
[3] = system: MCC cell lines (WAGA, MKL-1, MKL-2, MCC13, MCC26, UISO); assay: qHTS cell viability, all six MCC cell lines as a group (mean AUC, MCC.avg); type: cell-based, human; conditions: NPC library; mean AUC of six MCC cell lines
UISO cells (VN-MCC) = assay: qHTS cell viability (CellTiter-Glo, 72 h; primary and follow-up small molecule screen); type: cell-based, human
MKL-2 cells (VP-MCC) = assay: as above; type: cell-based, human
[4] = system: VN-MCC cell lines (MCC13, MCC26, UISO); assay: qHTS cell viability, VN-MCC cell lines as a group (mean AUC, VN.MCC.avg); type: cell-based, human; conditions: NPC library; for VN-MCC_Avg_AUC: mean AUC of VN-MCC cell lines; for Control-VN-MCC: therapeutic window: Control avg AUC minus VN-MCC avg AUC
MKL-1 cells (VP-MCC) = assay: qHTS cell viability (CellTiter-Glo, 72 h; primary and follow-up small molecule screen); type: cell-based, human
[5] = system: six MCC cell lines and four control cell lines; assay: qHTS cell viability, all 10 cell lines screened; type: cell-based; conditions: NPC library; therapeutic window: Control avg AUC minus MCC avg AUC
WAGA cells (VP-MCC) = assay: qHTS cell viability (CellTiter-Glo, 72 h; primary and follow-up small molecule screen); type: cell-based, human
[6] = NPC library, qHTS dose-response AUC, CRL7250 control
[7] = NPC library, qHTS dose-response AUC, MCC26
[8] = NPC library, qHTS dose-response AUC, MCC13
[9] = NPC library, qHTS dose-response AUC, HEK293T control
[10] = NPC library, qHTS dose-response AUC, HACAT control
[11] = NPC library, qHTS dose-response AUC, NIH3T3 control
[12] = NPC library, qHTS dose-response AUC, UISO
[13] = NPC library, qHTS dose-response AUC, MKL2
[14] = NPC library, qHTS dose-response AUC, MKL1
[15] = NPC library, qHTS dose-response AUC, WAGA

Row | Compound | CRL7250_AUC (CRL-7250 cells; [6]) | MCC26_AUC (MCC26 cells (VN-MCC); [7]) | MCC13_AUC (MCC13 cells (VN-MCC); [8]) | HEK293T_AUC (HEK293T cells; [9]) | Control_Avg_AUC [1] | HACAT_AUC (HACAT cells; [10]) | NIH3T3_AUC (NIH-3T3 cells; [11]) | VP-MCC_Avg_AUC [2] | Control-VP-MCC [2] | MCC_Avg_AUC [3] | UISO_AUC (UISO cells (VN-MCC); [12]) | MKL2_AUC (MKL-2 cells (VP-MCC); [13]) | VN-MCC_Avg_AUC [4] | Control-VN-MCC [4] | MKL1_AUC (MKL-1 cells (VP-MCC); [14]) | Control-MCC [5] | WAGA_AUC (WAGA cells (VP-MCC); [15]) | also measured
1 | COc1cc(/C=C2\CCC/C(=C\c3ccc(O)c(OC)c3)C2=O)ccc1O [Cyclovalone] | 455.387 | 456.812 | 435.637 | 422.832 | 441.636 | 441.291 | 447.034 | 381.488 | 60.1479 | 409.645 | 420.96 | 366.589 | 437.803 | 3.833 | 383.35 | 31.9905 | 394.525 | Area under the dose-response curve (AUC) MCC26 Replicate 1 (MCC26 cells (VN-MCC); follow-up screen, MCC26, replicate 1): 446.8; Area under the dose-response curve (AUC) MCC26 Replicate 2 (MCC26 cells (VN-MCC); follow-up screen, MCC26, replicate 2): 450.2; Area under the dose-response curve (AUC) MCC26 Replicate 3 (MCC26 cells (VN-MCC); follow-up screen, MCC26, replicate 3): 451.9; Area under the dose-response curve (AUC) MCC13 Replicate 1 (MCC13 cells (VN-MCC); follow-up screen, MCC13, replicate 1): 472.8; Area under the dose-response curve (AUC) MCC13 Replicate 2 (MCC13 cells (VN-MCC); follow-up screen, MCC13, replicate 2): 478.9; Area under the dose-response curve (AUC) MCC13 Replicate 3 (MCC13 cells (VN-MCC); follow-up screen, MCC13, replicate 3): 414.2; Area under the dose-response curve (AUC) UISO Replicate 1 (UISO cells (VN-MCC); follow-up screen, UISO, replicate 1): 445.7; Area under the dose-response curve (AUC) UISO Replicate 2 (UISO cells (VN-MCC); follow-up screen, UISO, replicate 2): 433.0; Area under the dose-response curve (AUC) UISO Replicate 3 (UISO cells (VN-MCC); follow-up screen, UISO, replicate 3): 430.4; Area under the dose-response curve (AUC) MKL-2 Replicate 1 (MKL-2 cells (VP-MCC); follow-up screen, MKL-2, replicate 1): 366.1; Area under the dose-response curve (AUC) MKL-2 Replicate 2 (MKL-2 cells (VP-MCC); follow-up screen, MKL-2, replicate 2): 391.5; Area under the dose-response curve (AUC) MKL-2 Replicate 3 (MKL-2 cells (VP-MCC); follow-up screen, MKL-2, replicate 3): 417.0; Area under the dose-response curve (AUC) MKL-1 Replicate 1 (MKL-1 cells (VP-MCC); follow-up screen, MKL-1, replicate 1): 414.7; Area under the dose-response curve (AUC) MKL-1 Replicate 2 (MKL-1 cells (VP-MCC); follow-up screen, MKL-1, replicate 2): 411.0; Area under the dose-response curve (AUC) MKL-1 Replicate 3 (MKL-1 cells (VP-MCC); follow-up screen, MKL-1, replicate 3): 407.6; Area under the dose-response curve (AUC) WAGA Replicate 1 (WAGA cells (VP-MCC); follow-up screen, WAGA, replicate 1): 469.4; Area under the dose-response curve (AUC) WAGA Replicate 2 (WAGA cells (VP-MCC); follow-up screen, WAGA, replicate 2): 402.6; Area under the dose-response curve (AUC) WAGA Replicate 3 (WAGA cells (VP-MCC); follow-up screen, WAGA, replicate 3): 413.8
2 | CCOc1ccc2nc(S(N)(=O)=O)sc2c1 [Ethoxzolamide] | 486.514 | 444.564 | 463.773 | 465.047 | 474.669 | 484.155 | 462.958 | 411.31 | 63.3587 | 428.559 | 429.085 | 435.522 | 445.807 | 28.8613 | 398.827 | 46.11 | 399.58 | –
3 | CCCC(=O)OC[C@@H](OC(=O)CCC)[C@@H](OC(=O)CCC)[C@H](Cn1c2nc(=O)[nH]c(=O)c-2nc2cc(C)c(C)cc21)OC(=O)CCC [Riboflavin tetrabutyrate] | 470.473 | 500.723 | 481.481 | 450.178 | 472.698 | 497.126 | 473.017 | 421.656 | 51.0422 | 456.689 | 492.96 | 430.163 | 491.721 | -19.0227 | 416.714 | 16.0097 | 418.091 | CRL7250_AUC (CRL-7250 cells; area under the dose-response curve, CRL7250 control cells, AUC<450 = reduced viability): 470.473; MCC26_AUC (MCC26 cells (VN-MCC); area under the dose-response curve, MCC26 cells, AUC<450 = reduced viability): 500.723; MCC13_AUC (MCC13 cells (VN-MCC); area under the dose-response curve, MCC13 cells, AUC<450 = reduced viability): 481.481; HEK293T_AUC (HEK293T cells; area under the dose-response curve, HEK293T control cells, AUC<450 = reduced viability): 450.178; HACAT_AUC (HACAT cells; area under the dose-response curve, HACAT control cells, AUC<450 = reduced viability): 497.126; NIH3T3_AUC (NIH-3T3 cells; area under the dose-response curve, NIH3T3 control cells, AUC<450 = reduced viability): 473.017; UISO_AUC (UISO cells (VN-MCC); area under the dose-response curve, UISO cells, AUC<450 = reduced viability): 492.96; MKL2_AUC (MKL-2 cells (VP-MCC); area under the dose-response curve, MKL-2 cells, AUC<450 = reduced viability): 430.163; MKL1_AUC (MKL-1 cells (VP-MCC); {}): 416.714; WAGA_AUC (WAGA cells (VP-MCC); area under the dose-response curve, WAGA cells, AUC<450 = reduced viability): 418.091
